Test results as given in article PMC11648822, “Lactam Truncation Yields a Dihydroquinazolinone Scaffold with Potent Antimalarial Activity that Targets PfATP4” (Chemmedchem, 2024).
Values after ≈ are worked out from the molar mass of the structure shown. Marks after values point to notes of the source that are not given here.

Tests used:
[1] = Human HepG2 cytotoxicity assay (Cell Titre Glo); type: cell-based; settings: HepG2 cells, growth inhibition at 48 h, 4 replicate experiments, read-out: HepG2 CC50 (SD)
Description: This assay uses Cell TitreGlo as a metabolic maker for human HepG2 cell growth and uses a protocol previously described.[32]

[2] = tested on: P. falciparum Dd2 PfATP4^F156L strain; test: 'compound 49' resistant parasite viability assay (LDH), Dd2 F156L; type: cell-based; settings: Plasmodium falciparum, DD2, 72 h, read-out: Dd2^F156L EC50 (SD)
Protocol: (§1) These assays were performed according to a previously described protocol.[16] Briefly, P. falciparum Dd2 strains treated with compound were incubated for 72 h at 37 °C. After incubating for 72 h, plates were frozen at −80 °C and then thawed at room temperature for at least 2 h. LDH activity, a surrogate for parasite growth was measured by the addition of the Malstst reagent mix, followed by incubation for 30 min and absorbance read using a ClarioStar Microplate reader at 650 nm. Values were normalized to DMSO control as a percentage and EC50 and dose response curves generated using GraphPad Prism.

[3] = tested on: P. falciparum Dd2 PfATP4^triple (I398F, P990R, D1247Y) strain; test: PfATP4 drug resistant parasite viability assay (LDH), Dd2 triple; type: cell-based; settings: Plasmodium falciparum, DD2, 72 h, read-out: Dd2^triple EC50 (SD)
Protocol: as §1

[4] = tested on: P. falciparum Dd2 PfATP4^G358S strain; test: PfATP4 drug resistant parasite viability assay (LDH), Dd2 G358S; type: cell-based; settings: for EC50: Plasmodium falciparum, DD2, 72 h, read-out: Dd2^G358S EC50 (SD)
Protocol: as §1

[5] = tested on: P. falciparum NF54 female gametes; test: Dual gamete formation assay, female; type: cell-based; settings: Plasmodium falciparum; NF54 stage V gametocytes, 48 h incubation; αPfs25 antibody 24 h after induction
Protocol: (§2) PfATP4 inhibitors are known to block the transmission of parasites from humans to mosquitoes by interfering with both gametocytes and gamete development.[29] We evaluated a subset of truncated analogues against male and female gametes using a previously described assay. In this assay, stage V gametocytes are treated with compounds and then xanthurenic acid is added and a drop in temperature is used to simulate the mosquito gut environment to induce gametogenesis. After 30 min of compound treatment, male gamete viability is determined by microscopy measuring exflagellation, and after 24 h of compound treatment, female viability is measured using a female gamete specific αPfs25 antibody.
(§3) The compounds were evaluated as previously described.[34] Briefly, mature P. falciparum NF54 stage V gametocytes were exposed to compounds for 48 h at 37 °C in 384 well plates in gametocyte culture medium (RPMI 1640 supplemented with 25 mM HEPES, 50 μg mL^−1 hypoxanthine, 4.8 g L^−1 NaHCO3, 2 mM L‐glutamine, 5 % pooled type AB serum, 0.5 % Albumax II (Gibco)) under a 1 % O2/ 3 % CO2/ 96 % N2 environment. Gametogenesis was then triggered by the addition of 10 μL ookinete medium (gametocyte culture medium supplemented with 100 μM xanthurenic acid and 0.27 μg mL^−1 Cy3‐labelled anti‐Pfs25 antibody) to each well at room temperature. Plates were then cooled on a metal block at 4 °C for four min to ensure even cooling and then stabilised for a further 4 min at 28 °C. At 20 min post‐induction, male gametogenesis was recorded in each well by automated brightfield microscopy using a x4 objective lens and 1.5x magnifier (x6 effective magnification). Afterward, plates were incubated in the dark at room temperature for 24 h and then female gametogenesis was recorded in each well by automated fluorescence microscopy (anti‐Pfs25‐positive cells). […] All data was evaluated in comparison to the positive and negative controls to calculate percentage inhibition of male and female gametocytes, and dose response analysis and EC50 calculation were performed using GraphPad Prism.

P. falciparum CAM3.1 = test: Multidrug-resistant parasite viability assay (SYBR green), CAM3.1; type: cell-based; settings: Plasmodium falciparum, 72 h, read-out: multidrug resistant P. falciparum strains EC50 (SD) CAM3.1
Protocol: (§4) These assays were performed as previously described.[16] P. falciparum 3D7 parasites and resistant lines Dd2, W2mef, 7G8, and artemisinin‐resistant Cambodian isolate (Cam3.I (2539T)), and P. knowlesi YH1, were cultured in human O^+ erythrocytes (RBCs) (Australian Red Cross Blood Service), in RPMI‐HEPES culture medium (pH 7.4, 50 μg/mL hypoxanthine, 25 mM NaHCO3, 20 μg/mL gentamicin, 0.5 % Albumax II (GibcoBRL)) (Thermo Fisher Scientific) and maintained in an atmosphere of 1 % O2, 4 % CO2 and 95 % N2. Parasites were synchronised with 5 % (w/v) sorbitol (Sigma‐Aldrich) treatments for ring stages. Growth assays for measuring drug inhibition of in‐cycle, ring to schizont stage parasites have been described previously. Parasites were grown in 1 % haematocrit, at 1 % and 2 % parasitaemia for P. falciparum and P. knowlesi respectively. […] Parasitaemia was measured using a SYBR DNA staining assay on a fluorometer.[33] After the incubation period, supernatants were removed and well contents were resuspended in PBS.

[6] = tested on: P. falciparum Dd2 PfATP4^D425E strain; test: 'compound 49' resistant parasite viability assay (LDH), Dd2 D425E; type: cell-based; settings: Plasmodium falciparum, DD2, 72 h, read-out: Dd2^D425E EC50 (SD)
Protocol: as §1

P. falciparum 7G8 = test: Multidrug-resistant parasite viability assay (SYBR green), 7G8; type: cell-based; settings: Plasmodium falciparum, 7G8, 72 h, read-out: multidrug resistant P. falciparum strains EC50 (SD) 7G8
Protocol: as §4

eLogD shake-flask method = type: physicochemical
Description: (§5) Human liver microsome stability, rat hepatocyte stability, aqueous solubility and eLogD are platform assays conducted by TCG Lifesciences and undertaken using previously described protocols.[10]

[7] = Aqueous solubility (pH 7.4); type: physicochemical
Description: as §5

Rat hepatocyte stability = type: in vitro ADME; settings: rat hepatocytes; read-out: Rat Hep CLint
Description: as §5

P. falciparum Dd2 = test: P. falciparum viability assay (SYBR green), Dd2; type: cell-based; settings: Plasmodium falciparum, DD2, 72 h, read-out: P. falciparum parental EC50 (SD) Dd2
Protocol: as §4

[8] = tested on: P. falciparum Dd2 strain with 2.8-fold amplification in PfATP4; test: 'compound 49' resistant parasite viability assay (LDH), Dd2 2.8 CNV; type: cell-based; settings: Plasmodium falciparum, DD2, 72 h, read-out: Dd2^2.8 CNV EC50 (SD)
Protocol: as §1

P. falciparum W2^mef = test: Multidrug-resistant parasite viability assay (SYBR green), W2mef; type: cell-based; settings: Plasmodium falciparum, W2, 72 h, read-out: multidrug resistant P. falciparum strains EC50 (SD) W2^mef
Protocol: as §4

[9] = tested on: P. falciparum NF54 male gametes; test: Dual gamete formation assay, male; type: cell-based; settings: Plasmodium falciparum; NF54 stage V gametocytes, 48 h incubation; exflagellation 20 min after induction
Protocol: as §2, §3

[10] = aqueous medium at pH 7.4, pH 7.4, aqueous buffer

SMILES | CC50 at 48 h [1] [nM] | EC50 [2] [nM] | EC50 [3] [nM] | EC50 [4] [nM] | EC50 [5] [nM] | EC50 (P. falciparum CAM3.1) [nM] | EC50 [6] [nM] | EC50 (P. falciparum 7G8) [nM] | eLogD (eLogD shake-flask method) | solubility ([7]; aqueous medium (pH 7.4; buffer not named), pH 7.4, aqueous buffer) [µM] | solubility ([7]; aqueous medium at pH 7.4 (buffer not named), pH 7.4, aqueous buffer) [µM] | hepatocyte CLint (Rat hepatocyte stability) [µL/min/1e6 cells] | EC50 (P. falciparum Dd2) [nM] | EC50 [8] [nM] | EC50 (P. falciparum W2^mef) [nM] | EC50 [9] [nM] | fold less potent against PfATP4^G358S strain relative to the Dd2 parental line ([4]; ratio of EC50s) [fold] | solubility [7, 10] [µM]
CN1C(=O)c2ccc(Cl)cc2NC1(C)C(=O)Nc1cncc(Cl)c1 (centres unmarked) [Compound 14, 7‐Chloro‐N‐(5‐chloro‐3‐pyridyl)‐2,3‐dimethyl‐4‐oxo‐1H‐quinazoline‐2‐carboxamide] | > 40000 | 89 | 160 | 61 | 120 | 21 | 55 | 43 | 3.2^[d] | 5.2 (≈ 1.9 µg/mL) | < 5.2 | 25 | 19 | 61 | 17 | 130 |  | 
CN1C(=O)c2ccc(-n3cccn3)cc2NC1(C)C(=O)Nc1cncc(Cl)c1 (centres unmarked) [Compound 33, N‐(5‐Chloropyridin‐3‐yl)‐2,3‐dimethyl‐4‐oxo‐7‐(1H‐pyrazol‐1‐yl)‐1,2,3,4‐tetrahydroquinazoline‐2‐carboxamide] | > 40000 | 125 | 584 | 537 | 1000 | 60 | 126 | 101 | 3.2^[d] |  |  | 14 | 46 | 124 | 39 | 460 | 7 | 2.6 (≈ 1.03 µg/mL)
COc1cc(F)c2c(c1)NC(C)(C(=O)Nc1cncc(Cl)c1)N(C)C2=O (centres unmarked) [Compound 36, N‐(5‐Chloropyridin‐3‐yl)‐5‐fluoro‐7‐methoxy‐2,3‐dimethyl‐4‐oxo‐1,2,3,4‐tetrahydroquinazoline‐2‐carboxamide] | > 40000 | 47 | 100 | 41 | 210 | 14 | 43 | 31 | 2.6^[d] |  |  | 8 | 13 | 56 | 10 | 110 |  | 4 (≈ 1.52 µg/mL)
